Assay results: publication PMC6934184, “Selective DNA-PKcs inhibition extends the therapeutic index of localized radiotherapy and chemotherapy” (The Journal of Clinical Investigation, 2019)

Molecular target: T1, NTRK1 (TRKA) (Homo sapiens, UniProt P04629)
T1 construct: purchased Thermo Fisher Scientific (Life Technologies) SelectScreen
Assay: SelectScreen Z'LYTE
Assay type: biochemical
Outline: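 Percent values come from Thermo SelectScreen profiling of NU5455, combining activity and binding assays. CSF1R was run in Z'LYTE format at Km app ATP, and CAMK1 in Adapta format with ATP listed at 10.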

T1 sequence (P04629 33-796): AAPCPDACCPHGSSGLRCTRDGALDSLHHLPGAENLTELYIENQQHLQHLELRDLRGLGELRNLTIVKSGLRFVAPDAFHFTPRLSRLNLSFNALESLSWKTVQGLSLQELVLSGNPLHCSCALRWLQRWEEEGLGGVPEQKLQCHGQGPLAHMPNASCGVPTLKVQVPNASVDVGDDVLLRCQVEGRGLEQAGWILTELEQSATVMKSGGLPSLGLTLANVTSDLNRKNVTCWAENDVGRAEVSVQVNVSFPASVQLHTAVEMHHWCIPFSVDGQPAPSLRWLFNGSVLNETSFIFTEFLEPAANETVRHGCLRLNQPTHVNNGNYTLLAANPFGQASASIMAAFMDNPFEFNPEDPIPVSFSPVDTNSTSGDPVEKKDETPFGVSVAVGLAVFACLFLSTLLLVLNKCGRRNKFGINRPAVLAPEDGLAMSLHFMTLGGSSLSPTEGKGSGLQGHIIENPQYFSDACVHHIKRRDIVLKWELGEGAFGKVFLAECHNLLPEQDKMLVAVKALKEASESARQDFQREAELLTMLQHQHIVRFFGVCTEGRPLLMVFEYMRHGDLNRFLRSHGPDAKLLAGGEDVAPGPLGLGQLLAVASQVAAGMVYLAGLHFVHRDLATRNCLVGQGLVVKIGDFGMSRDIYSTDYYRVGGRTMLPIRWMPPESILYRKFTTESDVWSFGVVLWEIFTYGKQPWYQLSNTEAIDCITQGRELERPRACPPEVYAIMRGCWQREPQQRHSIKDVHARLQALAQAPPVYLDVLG

CN(C(=O)CN1CCOCC1)c1ccc2sc3c(-c4cccc5c(=O)cc(N6CC7CCC(C6)O7)oc45)cccc3c2c1 [NU5455]
inhibition at 1 µM: 1.3%
